Entries after “also recorded” stand apart in the source; their conditions may differ.
How the values were obtained:
human islets [1] = test: in vitro perifusion, glucagon secretion from human islets; type: cell-based; conditions: for glucagon release / glucagon secretion: agonist 100 μM, 3 mM glucose
Protocol: (§2) A high-capacity, automated perifusion system was developed to dynamically measure hormone secretion from pancreatic islets. A low pulsatility peristaltic pump pushed HEPES-buffered solution (mM: 125 NaCl, 5.9 KCl, 2.56 CaCl2, 1 MgCl2, 25 HEPES, and 0.1% BSA; pH 7.4; and a perifusion rate of 100 μL/min) through a column containing 100 pancreatic islets immobilized in Bio-Gel P-4 Gel (BioRad, Hercules, Calif.). Except otherwise stated, glucose concentration was adjusted to 3 mM for all experiments. Stimuli were applied with the perifusion buffer. The perifusate was collected in an automatic fraction collector designed for a 96 well plate format. The columns containing the islets and the perifusion solutions were kept at 37° C., and the perifusate in the collecting plate was kept at <4° C. Perifusates were collected every minute. Hormone release in the perifusate was determined with the human or mouse Endocrine LINCOplex Kit following manufacturer's instructions (Linco research, St. Charles, Mo.).

[2] = system: human islets and dispersed single islet cells; test: [Ca^2+]i imaging (Fura-2) of human islets and dispersed islet cells; type: cell-based; conditions: for [Ca^2+]i response: 100 μM
Protocol: (§1) Glucose was added to give a final concentration of 3 mM. Islets or dispersed islet cells were incubated in Fura-2 AM (2 μM; 1 hour) and placed in a closed small-volume imaging chamber (Warner Instruments, Hamden, Conn.). Stimuli were applied with the bathing solution. Islets loaded with Fura-2 were excited alternatively at 340 and 380 nm with a monochromator light source (Cairn. Research Optoscan Monochromator, Cairn Research Ltd, Faversham, UK). Images were acquired with a Hamamatsu camera (Hamamatsu Corp, Japan) attached to a Zeiss Axiovert 200 microscope (Carl Zeiss, Jena, Germany). Changes in the 340/380 fluorescence emission ratio over time were analyzed in individual islets and dispersed cells using Kinetic Imaging AQM Advance software (Kinetic Imaging, N.C.). Peak changes in the fluorescence ratio constituted the response amplitude.

[3] = system: monkey islets and dispersed single islet cells; test: [Ca^2+]i imaging (Fura-2) of monkey islets and islet cells; type: cell-based, monkey (Macacca fascicularis); conditions: glutamate 100 μM
Protocol: as §1, with “Imaging of [Ca^2+]i was performed as described elsewhere (Cabrera et al., 2006). […] Glucose” for “Glucose”

human islets [4] = type: cell-based; conditions: glutamate 100 μM
Protocol: Perifusion of the islets was stopped after addition of the stimulus to allow the islet secretory products to accumulate and then resumed after 10 minutes.

mouse islets [5] = test: perifusion, glucagon secretion from mouse islets; type: cell-based, mouse (C57Bl/6); conditions: for glucagon release / secretion: 100 μM
Protocol: as §2

C57BL/6 mice = test: in vivo responses to iGluR agonists injected i.p.; set-up: species or system mouse; conditions: glutamate 30 mg/kg, AMPA 15 mg/kg, i.p.
Protocol: We examined in vivo responses to iGluR agonists by injecting C57BL/6 mice i.p. with either PBS (n=4), monosodium glutamate (30 mg/kg; n=7), or AMPA (15 mg/kg; n=8). To determine whether blocking iGluRs exacerbates insulin-induced hypoglycemia, we injected the AMPA/kainate iGluR antagonist NBQX (Tocris, Ellisville, Mo.) i.p. at 20 mg/kg 30 minutes before mice were treated with insulin to induce hypoglycemia.

[6] = Beyreuther et al., 2007; cited from earlier work
human islets [7] = test: in vitro perifusion, insulin release from human islets; conditions: 100 μM
Protocol: as §2

monkey islets [8] = test: in vitro perifusion, insulin release from monkey islets; conditions: 100 μM; not shown
[9] = system: isolated human islet cells; test: whole-cell patch clamp recordings of dispersed human islet cells; type: cell-based; conditions: kainate 100 μM; holding potential −70 mV
Protocol: Membrane currents were measured using whole-cell patch clamp recordings of dispersed human islet cells. All recordings were amplified using an EPC10 patch-clamp amplifier and digitized and analyzed using Patchmaster software (Heka Elektronik, Lambrecht, Germany). Pipettes were pulled from borosilicate glass capillaries on a horizontal programmable puller (DMZ Universal Puller, Zeitz-Instrumente, Augsburg, Germany). Pipettes with a resistance of 5-7 MΩ were filled with a pipette solution containing (in mM): 150 NMG (N-methyl-D-Glucamine), 10 EGTA, 1 MgCl2, 2 CaCl2, 5 HEPES and 3 Mg-ATP (pH 7.15). The bath solution contained (in mM): 138 NaCl, 5.6 KCl, 1.2 MgCl2, 2.6 CaCl2, 5 HEPES and 10 TEA (pH7.4). Cells were voltage-clamped at −70 mV. Ligands (e.g. kainate) were applied using the SF-77B Perfusion Fast-Step system (Warner Instruments, Hamden, Conn.), which allows rapid change of solutions bathing a single cell or membrane patch attached to a patch electrode. […] Thus, it is most likely that cells responding to kainate in our electrophysiological experiments were α-cells.

monkey islets [10] = test: microfluorometric determination of endogenous glutamate release from islets; type: cell-based; conditions: kainate 100 μM; KCl 30 mM
Protocol: Endogenous glutamate release from pancreatic islets was measured with the Amplex Red Glutamic Acid Assay Kit (Molecular Probes) adapted for microscopic microfluorometric detection (Akagi et al., 2003). In this assay, released glutamate is a substrate in an enzymatic chain reaction that generates the highly fluorescent product resorufin (Molecular Probes, Eugene, Oreg.). L-glutamate is oxidized by glutamate oxidase to produce α-ketoglutarate, NH4, and H2O2. Hydrogen peroxide reacts with the Amplex Red reagent in a reaction catalyzed by horseradish peroxidase to generate resorufin. Pancreatic islets were allowed to attach to a glass coverslip previously coated with poly-D-lysine. The coverslip was mounted in a closed small-volume imaging chamber (Warner Instruments) and perifused with the HEPES-buffered solution containing the stimuli. Resorufin fluorescence was excited at 510 nm, and the emission recorded at 590 nm using the same imaging system used to measure [Ca^2+]i (see above).

mouse islets [11] = test: perifusion of mouse islets with β cells destroyed by streptozotocin versus intact islets; type: cell-based; conditions: streptozotocin-treated versus intact islets
Protocol: This experiment was performed with mouse islets. Two samples were perifused in parallel (“a” and “b”). In “a” (blue curve and blue bar), but not in “b” (red curve and red bar) the β cells were selectively destroyed with streptozotocin. This absence of β cells generates type 1 diabetes-like condition in vitro. The glucagon release profile in panel “A” was obtained by using this model. […] Note that the non specific stimulus arginine is not able to differentiate a functionally impaired α cell in the absence of β cells.
At t=5 min, both samples were stimulated with 100 μM kainate for 5 min. The glucose was increased to 11 mM for 10 minutes and decreased again to 3 mM for the duration of the perifusion. At t=45 min, both samples (v) were stimulated with 5 mM Arginine. […] Kainate is a glutamate analog that is not metabolizable, and therefore a preferred agonist of the AMPA/Kainate receptors. Error bars represent the standards deviations for n=3 perifusions. Comparison were performed by an independent t-test.
For example, in some embodiments the present invention are directed to an in vitro model in which we destroy selectively the beta cells with, for example, streptozotocin, thus creating a situation that mimics type 1 diabetes. The treated islets are composed mainly of alpha cells. […] To examine if alpha cells in islets depleted of beta cells had impaired glutamate signaling, we stimulated them with kainate, an agonist for ionotropic glutamate receptors.

N[C@@H](CCC(=O)O)C(=O)O [glutamate]
glucagon release / glucagon secretion (human islets [1]): induced glucagon responses | glucagon release (human islets [1]; glutamate 1 μM-1 mM): stimulated large, concentration-dependent increases in glucagon release | cells responding to high glucose (11 mM) that did not respond to glutamate [2]: 64 out of 64 | [Ca^2+]i response [2]: elicited concentration-dependent [Ca^2+]i; responses; also recorded: increases in cytoplasmic free Ca^2+ concentration | glutamate-responsive cells that were glucagon-immunoreactive ([2]; n=4 human preparations): 34 out of 37 | [Ca^2+]i response [3]: increases in cytoplasmic free Ca^2+ concentration | glucagon secretion from human islets measured by [Ca^2+]i responses in biosensor cells (human islets [4]; islets on biosensor cells): large [Ca^2+]i responses; also recorded: elicited glucagon secretion from human islets | [Ca^2+]i response of biosensor cells in the absence of islets (human islets [4]; no islets): did not respond; also recorded: No responses were seen | glucagon release / secretion (mouse islets [5]): stimulated glucagon release | glucagon responses to glutamate in islets from mGluR4 knockout versus control mice (mouse islets [5]; glutamate 100 μM): undistinguishable in wild type and mGluR4KO mice | plasma insulin concentrations (C57BL/6 mice): not affected; also recorded: did not change | plasma glucagon concentrations (C57BL/6 mice; 30 minutes after treatment): increased plasma glucagon concentrations | plasma glucose concentrations (C57BL/6 mice; thirty minutes after injection): increased glucose levels | blood-brain barrier penetration [6]: does not penetrate the blood-brain barrier | insulin release (human islets [7]): Neither kainate (100 μM), glutamate (100 μM), nor AMPA (100 μM) stimulated increases in insulin release | insulin release (monkey islets [8]): Neither kainate (100 μM), glutamate (100 μM), nor AMPA (100 μM) stimulated increases in insulin release

C=C(C)[C@H]1CN[C@H](C(=O)O)[C@H]1CC(=O)O [kainate]
glucagon release / glucagon secretion (human islets [1]): stimulated large increases in glucagon secretion; also recorded: Increases in glucagon release could also be elicited | glucagon release / glucagon secretion (human islets [1]; listed as Kainate): elicited strong glucagon secretion | glucagon immunoreactive cells that responded to kainate [2]: 7 out of 9 | [Ca^2+]i response [2]: large increases in [Ca^2+]i | kainate responsive cells that were glucagon immunoreactive ([2]; [Ca^2+]i imaging experiments): > 75% | glutamate-responding cells that also responded to kainate ([2]; kainate 100 μM): 12 out of 12 | insulin immunoreactive cells that responded to kainate ([2]; n=8): None | whole-cell inward currents [9]: elicited inward currents | glutamate release (resorufin fluorescence) (monkey islets [10]): induced significant glutamate release; also recorded: strongly released glutamate | glucagon release / secretion (mouse islets [5]): stimulated glucagon secretion | reduction of amplitude of kainate-induced glucagon release in absence of β cells (mouse islets [11]; kainate 100 μM for 5 min): 55% | kainate potentiation of glucagon release in absence versus presence of β cells (mouse islets [11]): not as effective in potentiating glucagon release; also recorded: strongly reduced glucagon responses | insulin release (human islets [7]): Neither kainate (100 μM), glutamate (100 μM), nor AMPA (100 μM) stimulated increases in insulin release | insulin release (monkey islets [8]): Neither kainate (100 μM), glutamate (100 μM), nor AMPA (100 μM) stimulated increases in insulin release

Source: patent US8466185B2, “Methods and assays for detecting and treating hypoglycemia” (priority 2008, dated 2013)
